pIC50: −log10 of the molar value. Converted amounts (≈) assume the structure as drawn. Read-outs that look alike come from different tables or passages of the source.
How the values were obtained:
[1] = target: T1, full-length beta-Catenin (Uniprot ID P35222) (Homo sapiens, UniProt P35222); test: Fluorescence polarization IC50 (beta-catenin / 5FAM-TCF4 10-53 competition); assay type: binding; conditions: for IC50: FP EC50 (nM)
T1 construct: 10 nM full-length beta-Catenin (Uniprot ID P35222)
T1 sequence (P35222 1-781): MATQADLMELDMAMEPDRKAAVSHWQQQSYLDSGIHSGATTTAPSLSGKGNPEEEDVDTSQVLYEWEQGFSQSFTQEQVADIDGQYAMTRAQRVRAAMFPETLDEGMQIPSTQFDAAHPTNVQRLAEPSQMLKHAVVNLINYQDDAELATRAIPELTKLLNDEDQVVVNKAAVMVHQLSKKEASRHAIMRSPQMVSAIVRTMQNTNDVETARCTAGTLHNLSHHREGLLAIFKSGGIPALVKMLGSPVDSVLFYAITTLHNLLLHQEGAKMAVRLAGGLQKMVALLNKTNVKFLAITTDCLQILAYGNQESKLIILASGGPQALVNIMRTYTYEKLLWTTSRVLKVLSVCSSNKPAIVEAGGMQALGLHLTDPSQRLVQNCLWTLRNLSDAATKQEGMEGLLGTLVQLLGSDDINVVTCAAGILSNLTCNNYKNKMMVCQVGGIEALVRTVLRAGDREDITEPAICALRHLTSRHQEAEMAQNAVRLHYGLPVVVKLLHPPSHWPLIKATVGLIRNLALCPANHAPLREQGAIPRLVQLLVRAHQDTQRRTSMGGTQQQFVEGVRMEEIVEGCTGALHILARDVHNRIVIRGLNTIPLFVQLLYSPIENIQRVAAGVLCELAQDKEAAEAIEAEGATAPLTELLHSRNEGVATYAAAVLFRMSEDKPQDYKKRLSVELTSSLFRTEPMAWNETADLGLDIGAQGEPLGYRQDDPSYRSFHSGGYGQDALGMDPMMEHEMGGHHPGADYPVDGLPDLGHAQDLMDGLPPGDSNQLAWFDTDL

[2] = Solubility in PBS; assay type: physicochemical
Method in brief: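 PBS sample ultracentrifuged; supernatant run on HPLC vs. 50 μM peptide in DMSO standard. Solubility = (PBS peak area / DMSO peak area) × 50 uM.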

[3] = CHI Log D procedure; assay type: physicochemical
[4] = read-out: FP EC50, fluorescence polarization, beta-catenin
[5] = fluorescence polarization, beta-catenin

Structure (SMILES) | pIC50 ([1]; read-out: beta-Catenin FP IC50) | Solubility [2] [µM] | chromatographic logD ([3]; pH 7.4, CHI Log D) | Solubility ([2]; Solubility (uM)) [µM] | pIC50 [1, 4] | CHI Log D ([3]; pH 7.4) | IC50 [1, 5] [nM] | chromatographic logD ([3]; pH 7.4)
CC(=O)N1CCC[C@]12CC=CCCCC1(CCCC=CCCCOC(=O)N3CC[C@@](C(=O)N[C@@H](Cc4ccccc4Cl)C(=O)N[C@@H](Cc4csc5ccccc45)C(=O)N[C@@H](CCC(N)=O)C(N)=O)(C3)NC(=O)[C@H](CC(N)=O)NC(=O)[C@H](Cc3ccccc3)NC(=O)[C@H](Cc3ccccc3)NC(=O)[C@H](C)NC(=O)[C@H](CN(CC(=O)O)CC(F)(F)F)NC(=O)[C@H](CC(=O)O)NC1=O)NC(=O)[C@H](CC(C)(C)C)NC(=O)[C@H](CC(=O)O)NC2=O (stereo partly drawn) [I-1003, Ac-PL3-Asp-Npg-B5-Asp-TfeGA-Ala-Phe-Phe-Asn-PyrS2-2C1F-BztA-Gln-NH2] | 7.42 | 10 (≈ 21.3 µg/mL) | 2.54 |  |  |  |  | 
CC[C@H](C)[C@@H]1NC(=O)[C@H](C)NC(=O)[C@H](CN(CC(=O)O)CC(F)(F)F)NC(=O)[C@H](CC(=O)O)NC(=O)C2(CCCC=CCCCOC(=O)N3CC[C@@](C(=O)N[C@@H](Cc4ccccc4Cl)C(=O)N[C@@H](Cc4csc5ccccc45)C(=O)N[C@@H](CCC(N)=O)C(N)=O)(C3)NC(=O)[C@H](CC(N)=O)NC(=O)[C@H](Cc3ccccc3)NC1=O)CCCC=CC[C@]1(CCCN1C(C)=O)C(=O)N[C@@H](CC(=O)O)C(=O)N[C@@H](CC(C)(C)C)C(=O)N2 (stereo partly drawn) [I-1005, Ac-PL3-Asp-Npg-B5-Asp-TfeGA-Ala-Ile-Phe-Asn-PyrS2-2C1F-BztA-Gln-NH2] | 7.38 | 10 (≈ 21 µg/mL) | 2.64 |  |  |  |  | 
CC(=O)N1CCC[C@]12CC=CCCCC1(CCCC=CCCCOC(=O)N3CC[C@@](C(=O)N[C@@H](Cc4ccccc4Cl)C(=O)N[C@@H](Cc4csc5ccccc45)C(=O)N[C@@H](CO)C(N)=O)(C3)NC(=O)[C@H](CO)NC(=O)[C@H](Cc3ccccc3)NC(=O)[C@H](C)NC(=O)[C@H](C)NC(=O)[C@H](CC(N)=O)NC(=O)[C@H](CC(=O)O)NC1=O)NC(=O)[C@H](CC(C)(C)C)NC(=O)[C@H](CC(=O)O)NC2=O (stereo partly drawn) [I-1020, Ac-PL3-Asp-Npg-B5-Asp-Asn-Ala-Ala-Phe-Ser-PyrS2-2C1F-BztA-Ser-NH2] | 7.28 | 10 (≈ 18.8 µg/mL) | 2.49 |  |  |  |  | 
CC(=O)N1CCC[C@]12CC=CCCCC1(CCCC=CCCCOC(=O)N3CC[C@@](C(=O)N[C@@H](Cc4ccccc4F)C(=O)N[C@@H](Cc4csc5ccccc45)C(=O)N[C@@H](CO)C(N)=O)(C3)NC(=O)[C@H]([C@@H](C)O)NC(=O)[C@H](Cc3ccccc3)NC(=O)[C@H](C)NC(=O)[C@H](C)NC(=O)[C@H](CC(N)=O)NC(=O)[C@H](CC(=O)O)NC1=O)NC(=O)[C@H](CC(C)(C)C)NC(=O)[C@H](CC(=O)O)NC2=O (stereo partly drawn) [I-1024, Ac-PL3-Asp-Npg-B5-Asp-Asn-Ala-Ala-Phe-Thr-PyrS2-2FF-BztA-Ser-NH2] | 7.37 |  | 2.45 | 14 (≈ 26.3 µg/mL) |  |  |  | 
CC(=O)N1CCC[C@]12CC=CCCCC1(CCCC=CCCCOC(=O)N3CC[C@@](C(=O)N[C@@H](Cc4ccccc4Cl)C(=O)N[C@@H](Cc4csc5ccccc45)C(=O)N[C@@H](C(N)=O)[C@H](C)O)(C3)NC(=O)[C@H](Cc3ccccc3)NC(=O)[C@H](Cc3ccccc3)NC(=O)[C@H](C)NC(=O)[C@H](C)NC(=O)[C@H](CCC(=O)O)NC(=O)[C@H](CC(=O)O)NC1=O)NC(=O)[C@H](CC(C)(C)C)NC(=O)[C@H](CC(=O)O)NC2=O (stereo partly drawn) [I-1038, Ac-PL3-Asp-Npg-B5-Asp-Glu-Ala-Ala-Phe-Phe-PyrS2-2C1F-BztA-dThr-NH2] | 7.00 | 10 (≈ 19.7 µg/mL) | 2.73 |  |  |  |  | 
CC(=O)N1CCC[C@]12CC=CCCCC1(CCCC=CCCCOC(=O)N3CC[C@@](C(=O)N[C@@H](Cc4ccccc4Cl)C(=O)N[C@@H](Cc4csc5ccccc45)C(=O)N[C@@H](C(N)=O)[C@H](C)O)(C3)NC(=O)[C@H](CC(C)C)NC(=O)[C@H](Cc3ccccc3)NC(=O)[C@H](C)NC(=O)[C@H](C)NC(=O)[C@H](CCC(=O)O)NC(=O)[C@H](CC(=O)O)NC1=O)NC(=O)[C@H](CC(C)(C)C)NC(=O)[C@H](CC(=O)O)NC2=O (stereo partly drawn) [I-1039, Ac-PL3-Asp-Npg-B5-Asp-Glu-Ala-Ala-Phe-Leu-PyrS2-2C1F-BztA-dThr-NH2] | 7.24 |  | 2.65 | 20 (≈ 38.7 µg/mL) |  |  |  | 
CC(=O)N1CCC[C@]12CC=CCCCC1(CCCC=CCCCOC(=O)N3CC[C@@](C(=O)N[C@@H](Cc4ccccc4Cl)C(=O)N[C@@H](Cc4csc5ccccc45)C(=O)N[C@@H](CO)C(N)=O)(C3)NC(=O)[C@H]([C@@H](C)O)NC(=O)[C@H](Cc3ccccc3)NC(=O)[C@H](C)NC(=O)[C@H](C)NC(=O)[C@H](CC(=O)O)NC(=O)[C@H](CC(=O)O)NC1=O)NC(=O)[C@H](Cc1ccccc1)NC(=O)[C@H](CC(=O)O)NC2=O (stereo partly drawn) [I-1049, Ac-PL3-Asp-Phe-B5-Asp-Asp-Ala-Ala-Phe-Thr-PyrS2-2C1F-BztA-Ser-NH2] | 8.22 |  | 2.29 | 48 (≈ 91.8 µg/mL) |  |  |  | 
C[C@@H]1NC(=O)[C@H](C)NC(=O)[C@H](CC(=O)O)NC(=O)[C@H](CC(=O)O)NC(=O)C2(CCCC=CCCCCCC[C@@](C)(C(=O)N[C@@H](Cc3ccsc3)C(=O)N[C@@H](Cc3csc4ccccc34)C(=O)N[C@@H](CCC(N)=O)C(N)=O)NC(=O)[C@H](CC(N)=O)NC(=O)[C@H](Cc3ccccc3)NC1=O)CCCC=CC[C@]1(CCCN1C(=O)CN=[N+]=[N-])C(=O)N[C@@H](CC(=O)O)C(=O)N[C@@H](CC(C)(C)C)C(=O)N2 (stereo partly drawn) [I-1052, AzAc-PL3-Asp-Npg-B5-Asp-Asp-Ala-Ala-Phe-Asn-S8-3Thi-BztA-Gln-NH2] |  | 33 (≈ 63.2 µg/mL) |  |  | 8.05 | 2.334 |  | 
C[C@@H]1NC(=O)[C@H](C)NC(=O)[C@H](CC(=O)O)NC(=O)[C@H](CC(=O)O)NC(=O)C2(CCCC=CCCCOC(=O)N3CC[C@@](C(=O)N[C@@H](Cc4ccccc4)C(=O)N[C@@H](Cc4csc5ccccc45)C(=O)N[C@@H](Cc4c[nH]cn4)C(N)=O)(C3)NC(=O)[C@H](CC(N)=O)NC(=O)[C@H](Cc3ccccc3)NC1=O)CCCC=CC[C@]1(CCCN1C(=O)CN=[N+]=[N-])C(=O)N[C@@H](CC(=O)O)C(=O)N[C@@H](CC(C)(C)C)C(=O)N2 (stereo partly drawn) [I-1055, AzAc-PL3-Asp-Npg-B5-Asp-Asp-Ala-Ala-Phe-Asn-PyrS2-Phe-BztA-His-NH2] |  | 10 (≈ 19.6 µg/mL) |  |  |  |  | 7 | 2.11
C[C@@H]1NC(=O)[C@H](C)NC(=O)[C@H](CN(CC(=O)O)CC(F)(F)F)NC(=O)[C@H](Cc2ccsc2)NC(=O)C2(CCCC=CCCCOC(=O)N3CC[C@@](C(=O)N[C@@H](CC(=O)O)C(=O)N[C@@H](Cc4csc5ccccc45)C(=O)N[C@@H](CCC(N)=O)C(N)=O)(C3)NC(=O)[C@H](CC(N)=O)NC(=O)[C@H](Cc3ccccc3)NC1=O)CCCC=CC[C@]1(CCCN1C(=O)CN=[N+]=[N-])C(=O)N[C@@H](CC(=O)O)C(=O)N[C@@H](CC(C)(C)C)C(=O)N2 (stereo partly drawn) [I-1056, AzAc-PL3-Asp-Npg-B5-3Thi-TfeGA-Ala-Ala-Phe-Asn-PyrS2-Asp-BztA-Gln-NH2] |  | 41 (≈ 84.9 µg/mL) |  |  | 5.19 | 1.929 |  | 
C[C@@H]1NC(=O)[C@H](C)NC(=O)[C@H](CN(CC(=O)O)CC(F)(F)F)NC(=O)[C@H](Cc2ccsc2)NC(=O)C2(CCCC=CCCCOC(=O)N3CC[C@@](C(=O)N[C@@H](CC(=O)O)C(=O)N[C@@H](Cc4csc5ccccc45)C(=O)N[C@@H](CCC(N)=O)C(N)=O)(C3)NC(=O)[C@H](CC(N)=O)NC(=O)[C@H](Cc3ccccc3)NC1=O)CCCC=CC[C@]1(CCCN1C(=O)CN=[N+]=[N-])C(=O)N[C@@H](CC(=O)O)C(=O)N[C@@H](CC(C)(C)C)C(=O)N2 (stereo partly drawn) [I-1057, AzAc-PL3-Asp-Npg-B5-3Thi-TfeGA-Ala-Ala-Phe-Asn-PyrS2-Asp-BztA-Gln-NH2] |  | 50 (≈ 104 µg/mL) |  |  | 5.18 | 1.92 |  | 
C[C@@H]1NC(=O)[C@H](C)NC(=O)[C@H](CC(=O)O)NC(=O)[C@H](CC(=O)O)NC(=O)C2(CCCC=CCCCOC(=O)N3CC[C@@](C(=O)N[C@@H](Cc4ccsc4)C(=O)N[C@@H](Cc4csc5ccccc45)C(=O)N[C@@H](C(N)=O)[C@H](C)O)(C3)NC(=O)[C@H](CC(N)=O)NC(=O)[C@H](Cc3ccccc3)NC1=O)CCCC=CC[C@]1(CCCN1C(=O)CN=[N+]=[N-])C(=O)N[C@@H](CC(=O)O)C(=O)N[C@@H](CC(C)(C)C)C(=O)N2 (stereo partly drawn) [I-1058, AzAc-PL3-Asp-Npg-B5-Asp-Asp-Ala-Ala-Phe-Asn-PyrS2-3Thi-BztA-dThr-NH2] |  | 42 (≈ 81.2 µg/mL) |  |  |  |  | 14 | 2.25
